Measured values: ChEMBL document CHEMBL5335848, “Penicilloneines A and B, Quinolone-Citrinin Hybrids from a Starfish-Derived Penicillium sp” (2024)
In brackets after ≈: the same amount, converted by molar mass. Activity calls are given as the source filed them. No cut-off for these calls is given here.

Legend:
[1] = system: Colletotrichum gloeosporioides; assay: Antifungal activity against Colletotrichum gloeosporioides assessed as increase in leucine aminopeptidase encoding gene expression by RNA-seq analysis; format: functional, organism-based
[2] = system: Colletotrichum gloeosporioides; assay: Antifungal activity against Colletotrichum gloeosporioides assessed as induction of morphological changes by measuring appearance of evident craters on surface at 5 mg/L measured after 48 hrs by SEM analysis; format: functional, organism-based
[3] = system: Colletotrichum gloeosporioides; assay: Antifungal activity against Colletotrichum gloeosporioides assessed as induction of morphological changes by measuring appearance of clustered/bundled hyphae at 5 mg/L measured after 48 hrs by SEM analysis; format: functional, organism-based
[4] = system: Colletotrichum gloeosporioides; assay: Antifungal activity against Colletotrichum gloeosporioides assessed as increase in putative hydrolase encoding gene expression by RNA-seq analysis; format: functional, organism-based
[5] = system: Colletotrichum gloeosporioides; assay: Antifungal activity against Colletotrichum gloeosporioides assessed as fold decrease in phosphoketolase encoding gene expression by qRT-PCR analysis relative to control; format: functional
[6] = system: Colletotrichum gloeosporioides; assay: Antifungal activity against Colletotrichum gloeosporioides assessed as fold decrease in pyruvate decarboxylase encoding gene expression by qRT-PCR analysis relative to control; format: functional
[7] = system: Colletotrichum gloeosporioides; assay: Antifungal activity against Colletotrichum gloeosporioides assessed as fold increase in leucine aminopeptidase encoding gene expression by qRT-PCR analysis relative to control; format: functional
[8] = system: Colletotrichum gloeosporioides; assay: Antifungal activity against Colletotrichum gloeosporioides assessed as fold increase in lipase encoding gene expression by qRT-PCR analysis relative to control; format: functional
[9] = system: Colletotrichum gloeosporioides; assay: Antifungal activity against Colletotrichum gloeosporioides assessed as induction of morphological changes by measuring appearance of disorganized organelles at 5 mg/L incubated for 24 hrs by TEM analysis; format: functional, organism-based
[10] = system: Colletotrichum gloeosporioides; assay: Antifungal activity against Colletotrichum gloeosporioides assessed as induction of morphological changes by measuring separation of plasma membrane from cell wall at 5 mg/L incubated for 24 hrs by TEM analysis; format: functional, organism-based
[11] = system: Colletotrichum gloeosporioides; assay: Antifungal activity against Colletotrichum gloeosporioides assessed as induction of morphological changes by measuring disappearance of organelles at 5 mg/L incubated for 24 hrs by TEM analysis; format: functional, organism-based
[12] = system: Colletotrichum gloeosporioides; assay: Antifungal activity against Colletotrichum gloeosporioides assessed as induction of morphological changes by measuring increase in low density particles in cytoplasm at 5 mg/L incubated for 24 hrs by TEM analysis; format: functional, organism-based
[13] = system: Colletotrichum gloeosporioides; assay: Antifungal activity against Colletotrichum gloeosporioides assessed as decrease in oxalate decarboxylase encoding gene expression by RNA-seq analysis; format: functional, organism-based
[14] = system: Colletotrichum gloeosporioides; assay: Antifungal activity against Colletotrichum gloeosporioides assessed as induction of morphological changes by measuring reduction in high density particles in cytoplasm at 5 mg/L incubated for 24 hrs by TEM analysis; format: functional, organism-based
[15] = system: Colletotrichum gloeosporioides; assay: Antifungal activity against Colletotrichum gloeosporioides assessed as increase in acetylcholinesterase encoding gene expression by RNA-seq analysis; format: functional, organism-based
[16] = system: Colletotrichum gloeosporioides; assay: Antifungal activity against Colletotrichum gloeosporioides assessed as increase in glycosyl hydrolase encoding gene expression by RNA-seq analysis; format: functional, organism-based
[17] = system: Colletotrichum gloeosporioides; assay: Antifungal activity against Colletotrichum gloeosporioides assessed as fold increase in putative hydrolase encoding gene expression by qRT-PCR analysis relative to control; format: functional
[18] = system: Colletotrichum gloeosporioides; assay: Antifungal activity against Colletotrichum gloeosporioides assessed as induction of morphological changes by measuring degradation of plasma membrane at 5 mg/L incubated for 24 hrs by TEM analysis; format: functional, organism-based
[19] = system: Colletotrichum gloeosporioides; assay: Antifungal activity against Colletotrichum gloeosporioides assessed as fold increase in beta-galactosidase encoding gene expression by qRT-PCR analysis relative to control; format: functional
[20] = system: Colletotrichum gloeosporioides; assay: Antifungal activity against Colletotrichum gloeosporioides assessed as induction of morphological changes by measuring appearance of vacuolizations at 5 mg/L incubated for 24 hrs by TEM analysis; format: functional, organism-based
[21] = system: Colletotrichum gloeosporioides; assay: Antifungal activity against Colletotrichum gloeosporioides assessed as fold increase in glycosyl hydrolase encoding gene expression by qRT-PCR analysis relative to control; format: functional
[22] = system: Colletotrichum gloeosporioides; assay: Antifungal activity against Colletotrichum gloeosporioides assessed as decrease in pyruvate decarboxylase encoding gene expression by RNA-seq analysis; format: functional, organism-based
[23] = system: Colletotrichum gloeosporioides; assay: Antifungal activity against Colletotrichum gloeosporioides assessed as induction of morphological changes by measuring appearance of twisted hyphae at 5 mg/L measured after 48 hrs by SEM analysis; format: functional, organism-based
[24] = system: Colletotrichum gloeosporioides; assay: Antifungal activity against Colletotrichum gloeosporioides assessed as increase in beta-galactosidase encoding gene expression by RNA-seq analysis; format: functional, organism-based
[25] = system: Colletotrichum gloeosporioides; assay: Antifungal activity against Colletotrichum gloeosporioides assessed as decrease in 3-carboxymuconate cyclase encoding gene expression by RNA-seq analysis; format: functional, organism-based
[26] = system: Colletotrichum gloeosporioides; assay: Antifungal activity against Colletotrichum gloeosporioides assessed as increase in lipase encoding gene expression by RNA-seq analysis; format: functional, organism-based
[27] = system: Colletotrichum gloeosporioides; assay: Antifungal activity against Colletotrichum gloeosporioides assessed as decrease in phosphoketolase encoding gene expression by RNA-seq analysis; format: functional, organism-based
[28] = system: Colletotrichum gloeosporioides; assay: Antifungal activity against Colletotrichum gloeosporioides assessed as inhibition of mycelial growth incubated for 3 days by cross-bonded method; format: functional; conditions: for LC50: 72 h, time 3 day; for Activity: time 3.0 day
[29] = system: Colletotrichum gloeosporioides; assay: Antifungal activity against Colletotrichum gloeosporioides assessed as induction of morphological changes by measuring appearance of cavities at 5 mg/L incubated for 24 hrs by TEM analysis; format: functional, organism-based
[30] = system: Colletotrichum gloeosporioides; assay: Antifungal activity against Colletotrichum gloeosporioides assessed as induction of morphological changes by measuring aggregation of particles into clusters in cytoplasm at 5 mg/L incubated for 24 hrs by TEM analysis; format: functional, organism-based
[31] = system: Colletotrichum gloeosporioides; assay: Antifungal activity against Colletotrichum gloeosporioides assessed as fold decrease in oxalate decarboxylase encoding gene expression by qRT-PCR analysis relative to control; format: functional
[32] = system: Colletotrichum gloeosporioides; assay: Antifungal activity against Colletotrichum gloeosporioides assessed as fold decrease in 3-carboxymuconate cyclase encoding gene expression by qRT-PCR analysis relative to control; format: functional
[33] = system: Colletotrichum gloeosporioides; assay: Antifungal activity against Colletotrichum gloeosporioides assessed as fold increase in acetylcholinesterase encoding gene expression by qRT-PCR analysis relative to control; format: functional
[34] = system: Colletotrichum gloeosporioides; assay: Antifungal activity against Colletotrichum gloeosporioides assessed as induction of morphological changes by measuring appearance of distorted hyphae at 5 mg/L measured after 48 hrs by SEM analysis; format: functional, organism-based
[35] = system: Colletotrichum gloeosporioides; assay: Antifungal activity against Colletotrichum gloeosporioides assessed as disruption of cell wall at 5 mg/L incubated for 24 hrs by TEM analysis; format: functional, organism-based

CC1=C2C(=CO[C@H](C)[C@H]2C)C(O)=C(Cc2c(O)c3ccccc3n(C)c2=O)C1=O
Activity [1]: Active
Activity [2]: Active
Activity [3]: Active
Activity [4]: Active
fold change (FC) [5]: 1.47
fold change (FC) [6]: 215
fold change (FC) [7]: 3.5
fold change (FC) [8]: 8.9
Activity [9]: Active
Activity [10]: Active
Activity [11]: Active
Activity [12]: Active
Activity [13]: Active
Activity [14]: Active
Activity [15]: Active
Activity [16]: Active
fold change (FC) [17]: 14
Activity [18]: Active
fold change (FC) [19]: 4.7
Activity [20]: Active
fold change (FC) [21]: 1.7
Activity [22]: Active
Activity [23]: Active
Activity [24]: Active
Activity [25]: Active
Activity [26]: Active
Activity [27]: Active
LC50 [28]: 0.02 µg/mL (≈ 0.0508 µM)
Activity [29]: Active
Activity [30]: Active
fold change (FC) [31]: 23.8
fold change (FC) [32]: 386
fold change (FC) [33]: 6
Activity [34]: Active

Cn1c(=O)cc(O)c2ccccc21
Activity [28]: Active

Mancozeb
Activity [35]: Active
Activity [20]: Active
Activity [28]: Active

Cc1c(O)c(Cc2c(O)c3ccccc3n(C)c2=O)c(O)c2c1[C@H](C)[C@@H](C)OC2=O
LC50 [28]: 1.51 µg/mL (≈ 3.69 µM)

Cc1c(O)c(C(=O)O)c(O)c2c1[C@H](C)[C@@H](C)OC2=O
Activity [28]: Active

CC1=C2C(=CO[C@H](C)[C@H]2C)C(O)=C(C(=O)O)C1=O
Activity [28]: Active
